*1 amine or outer side, *2 acyl side, *3 side chain or, on linkers, in order; H or OH if unused. Where a SMILES comes first, the peptide text is derived from it. Bridges are numbered along the chain shown (N, C = ends). [ ]: non-standard residue; d: D form. X1 = O=C(C[C@H](N[*:1])c1ccc(F)cc1)[*:2]; dPhe(4-F) = N[C@H](Cc1ccc(F)cc1)C(=O)O
Key:
mouse red blood cells = type: cell-based
Protocol: a Biacore T200 instrument (GE Healthcare) at 25 °C. In this study, the running buffer was HBS-EP+ buffer (10 mM HEPES-KOH (pH 7.4), 150 mM NaCl, 50 μM EDTA, 0.05% Tween 20) containing 0.1% DMSO. The Series S Sensor Chip CM5 was used to fix BAM complex on the surface of Biacore CM5 chip with a density of 9500 RU. The binding mode was multi-cycle kinetics (one sample concentration one cycle). Finally, the binding sensorgrams was analyzed by Biacore evaluation software, and the standard 1:1 model was used for fitting.
(§1) Preliminary evaluation of the antibacterial activity of macrocyclic peptides against E. coli […]
Remove the previously preserved E. coli W3110 cells from the -80 °C refrigerator, scrape a little, inoculate it into 1 mL LB liquid medium, and culture overnight in 37°C shaker. The strain was inoculated into fresh LB liquid medium according to the inoculation ratio of 1:100 and incubated at 37℃ until the OD600 reached about 0.47~0.53. […]
Finally, the plate was scanned and counted. […]
the samples were centrifuged at 1000 rpm for 10 min，and take pictures of the pellet after centrifugation. […] The absorbance of the supernatant at the wavelength of 545 nm was measured by microplate reader, and the percentage of hemolysis of each […]

BAM complex = system: T1, BAM complex; test: SPR binding kinetics to BAM complex; parameters: species or system E. coli; conditions: Biacore T200, 25 °C, multi-cycle kinetics, 1:1 model; for ka for BAM complex: CM5 chip; for Kd: HBS-EP+ buffer pH 7.4 with 0.1% DMSO, BAM complex on CM5 chip (9500 RU)
T1 construct: made in house; host or cells: E. coli BL21(DE3), strain obtained from Xinmiao Fu, Fujian Normal University
Protocol: Expression and purification of the BAM complex
The E. coli BL21(DE3) cells containing all five Bam proteins (BamA, B, C, D, and E) was obtained from Xinmiao Fu of Fujian Normal University and used for expression and purification.
The BL21(DE3) cells plated onto LB-ampicillin agar plates and incubated overnight at 37 °C. A 20 mL culture incubated overnight at 37°C was prepared from a single colony in LB medium supplemented with 100 mg/L of ampicillin. The strain was inoculated into fresh LB liquid medium according to the inoculation ratio of 1:100 and incubated at 37 ℃ for about 4 hours until the OD600 reached about 1.0. The temperature of the incubator was set to 20 ℃ and then cultured for 1 hour, and 200 uM IPTG was added to induce overnight. First of all, the induced cells were collected by freezing centrifuge 3000 rpm for 30 min, and the collected cells were resuspended with Buffer 1 (20 mM Tris-HCl, pH 8.0, 150 mM NaCl), and then crushed low temperature and pressure with a high pressure crusher. The broken cells were centrifuged 1 hour at 4 °C for18000 rpm by high speed centrifuge. After centrifugation at 4 °C 18000 rpm for 1 hour, and the supernatant was discarded and the cell membrane was collected. The collected cell membranes were resuscitated with Buffer 2 (20 mM Tris-HCl, pH 8.0, 300 mM NaCl, 1% DDM) and then dissolved at 4 °C for 2 hours. After dissolving the membrane, the supernatant was collected by high speed centrifuge at 18,000 rpm. The 20 mM imidazole was added to the supernatant and incubated with a 2 mL Ni-NTA sefinoseTM resin column for 1 hour. After incubation, 10 column volumes were washed with Buffer 3 (20 mM Tris-HCl, pH 8.0, 300 mM NaCl, 0.025%DDM) containing 30 mM and 50 mM imidazole respectively. Then, the protein was eluted with Buffer 3 containing 200 mM imidazole, and the eluted protein was collected. Finally, using the 20-fold molar excess of EZ-LinkTM Sulfo-NHS-LC-LC-Biotin for BAM complex, and incubate reaction on ice for 2 hours. After the protein labeling is completed, dialysis is used to purify the labeled protein to remove the remaining unreacted and hydrolyzed biotin reagents. […]
The mobile phase was 0.1% TFA aqueous solution / acetonitrile containing 0.1%
TFA. The purified macrocyclic peptides and fluorinated macrocyclic peptides were confirmed by electrospray ionization mass spectrometry (ESI-MS).
Binding kinetics analysis by SPR
The binding kinetics between the selected peptides and EphA2 were tested by SPR using a Biacore T200 instrument (GE Healthcare) at 25 °C. In this study, the running buffer was HBS-EP+ buffer (10 mM HEPES-KOH (pH 7.4), 150 mM NaCl, 50 μM EDTA, 0.05% Tween 20) containing 0.1% DMSO. Biotin capture kit (GE Healthcare) was used to fix human EphA2 on the surface of Biacore CAP chip with a density of 1050 RU. Five different concentrations of peptides were injected at the flow rate of 30 μL/min, and their kinetic constants were determined. The binding kinetic was quantified by single cycle kinetic method. Finally, the binding sensorgrams was analyzed by Biacore evaluation software, and the standard 1:1 model was used for fitting.
The binding kinetics between the selected peptides and BAM complex were tested by SPR using […]
a Biacore T200 instrument (GE Healthcare) at 25 °C. In this study, the running buffer was HBS-EP+ […]
0.1% DMSO. The Series S Sensor Chip CM5 was used to fix BAM complex on the surface of Biacore CM5 chip with a density of 9500 RU. The binding mode was multi-cycle kinetics (one sample concentration one cycle). Finally, the binding sensorgrams was analyzed by Biacore evaluation software, and the standard 1:1 model was used for fitting.
as §1
Remove the previously preserved E. coli W3110 cells from the -80 °C refrigerator, scrape a little, inoculate it into 1 mL LB liquid medium, and culture overnight in 37°C shaker. The strain was […]

T1 sequence (P0A903 25-344): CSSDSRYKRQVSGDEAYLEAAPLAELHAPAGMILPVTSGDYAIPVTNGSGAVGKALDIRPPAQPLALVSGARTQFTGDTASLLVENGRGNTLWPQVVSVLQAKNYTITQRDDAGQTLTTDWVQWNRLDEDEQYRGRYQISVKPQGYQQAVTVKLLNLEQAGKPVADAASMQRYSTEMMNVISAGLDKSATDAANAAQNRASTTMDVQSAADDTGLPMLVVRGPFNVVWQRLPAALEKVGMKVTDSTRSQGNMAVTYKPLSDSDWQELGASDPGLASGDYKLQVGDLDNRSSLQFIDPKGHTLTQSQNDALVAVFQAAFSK
T1 sequence (P0AC02 20-245, further chain): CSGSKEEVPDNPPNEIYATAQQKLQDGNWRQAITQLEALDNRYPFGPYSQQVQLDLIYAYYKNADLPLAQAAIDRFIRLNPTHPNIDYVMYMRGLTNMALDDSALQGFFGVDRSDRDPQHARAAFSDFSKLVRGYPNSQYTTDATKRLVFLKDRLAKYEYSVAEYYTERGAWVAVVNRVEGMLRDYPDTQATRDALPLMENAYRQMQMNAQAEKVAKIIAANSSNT
T1 sequence (P0A937 20-113, further chain): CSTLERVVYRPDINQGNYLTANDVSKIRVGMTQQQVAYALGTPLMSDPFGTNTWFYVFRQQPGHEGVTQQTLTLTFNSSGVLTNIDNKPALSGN
T1 sequence (P77774 20-392, further chain): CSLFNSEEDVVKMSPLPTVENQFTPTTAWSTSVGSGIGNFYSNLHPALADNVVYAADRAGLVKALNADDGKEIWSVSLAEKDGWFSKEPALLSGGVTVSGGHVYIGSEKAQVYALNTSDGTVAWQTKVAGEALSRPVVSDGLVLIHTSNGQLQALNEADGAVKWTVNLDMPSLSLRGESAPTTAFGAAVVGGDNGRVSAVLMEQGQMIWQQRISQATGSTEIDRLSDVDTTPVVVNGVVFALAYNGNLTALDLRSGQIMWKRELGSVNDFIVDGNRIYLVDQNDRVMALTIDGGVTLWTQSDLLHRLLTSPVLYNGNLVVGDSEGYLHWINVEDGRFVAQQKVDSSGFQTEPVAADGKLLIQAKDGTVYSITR

SMILES | hemolytic toxicity towards mouse red blood cells (mouse red blood cells) | ka for BAM complex (BAM complex) | Kd (BAM complex) [µM]
CC[C@H](C)[C@@H]1NC(=O)[C@@H](Cc2ccc(F)cc2)NC(=O)CSC[C@@H](C(=O)NCC(N)=O)NC(=O)[C@H]([C@@H](C)O)NC(=O)[C@H](Cc2c[nH]cn2)NC(=O)[C@H](CC(C)C)NC(=O)[C@H](Cc2ccc(O)cc2)NC(=O)[C@H](CC(N)=O)NC(=O)[C@@H](Cc2ccc(F)cc2)NC(=O)[C@H]([C@@H](C)O)NC(=O)[C@H](CC(C)C)NC(=O)[C@H](CO)NC(=O)[C@H](CCCCN)NC(=O)[C@H](Cc2c[nH]cn2)NC(=O)[C@H](Cc2c[nH]c3ccccc23)NC1=O [BAM-f2] ({CH2CO}-[dPhe(4-F)]IWHKSLT[dPhe(4-F)]NYLHTCG-NH2; thioether N-15) | low to negligible hemolytic toxicity | 0.90 ×10 4 M-1s-1 | 0.755
CC[C@H](C)[C@@H]1NC(=O)[C@H](Cc2ccccc2)NC(=O)[C@H](Cc2c[nH]cn2)NC(=O)[C@H](CCCCN)NC(=O)[C@@H](Cc2ccc(F)cc2)NC(=O)CSC[C@@H](C(=O)NCC(N)=O)NC(=O)[C@H]([C@@H](C)CC)NC(=O)[C@@H]2CCCN2C(=O)[C@H](CO)NC(=O)[C@H](CCCNC(=N)N)NC(=O)[C@H](Cc2ccc(O)cc2)NC(=O)C[C@@H](c2ccc(F)cc2)NC(=O)[C@H](Cc2ccc(O)cc2)NC1=O [BAM-β3] ({CH2CO}-[dPhe(4-F)]KHFIY[X1]YRSPICG-NH2; thioether N-13) | low to negligible hemolytic toxicity | 2.54 ×10 4 M-1s-1 | 0.453

Reference: article PMC11310889, “Ribosomal translation of fluorinated non-canonical amino acids for de novo biologically active fluorinated macrocyclic peptides” (Chemical Science, 2024)
